Data reported in US20230085307A1, “PYRIDAZINONE COMPOUND AND HERBICIDE” (NISSAN CHEMICAL CORPORATION, priority 2019, published 2023).

test system: late watergrass; test: Test Example 1: herbicidal activity, application before weed generation under submerged conditions (Table 16, symbol A); assay type: in vivo, late watergrass (Echinochloa oryzicola); details: 320 g/ha applied herbicide
In short: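 Emulsion formulation, water-diluted to set dose, was put onto the flooded surface (4 cm depth, alluvial soil) the same day weeds were sown and 2.5-leaf rice transplanted. After 3 weeks at 25-30 °C under glass, each species was rated 0 (≤5% kill) to 5 (≥90% kill).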

SMILES	Herbicidal effect on A: late watergrass (grade 0-5)
CON=C(C)c1ccc(-c2sc3ccc(F)cc3c2-c2c(O)c(C)nn(C)c2=O)cc1 [2-079]	1 (Herbicidal rate of 5% or more and less than 20%)
CCCC(=O)Oc1c(C)nn(C)c(=O)c1-c1c(-c2ccc(C(C)=NOC)cc2)sc2ccc(F)cc12 [2-080]	5 (Herbicidal rate of 90% or more (almost completely withered))

test system: late watergrass; test: Test Example 2: herbicidal activity, application during weed generation under submerged conditions (Table 17, symbol A); assay type: in vivo, late watergrass (Echinochloa oryzicola); details: AAH 320 g/ha; application during weed generation, submerged conditions
In short: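 Herbicide emulsion, diluted with water to the chosen amount, is applied onto 4 cm floodwater over alluvial soil where the weeds were co-sown and raised at 25–30° C. Application timing: 1–2 leaves. Assessment: three weeks afterwards.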

SMILES	herbicidal effect rating, A: late watergrass
CON=C(C)c1ccc(-c2sc3ccc(F)cc3c2-c2c(O)c(C)nn(C)c2=O)cc1 [2-079]	0 (Herbicidal rate of 5% or less (almost no effect))
CCCC(=O)Oc1c(C)nn(C)c(=O)c1-c1c(-c2ccc(C(C)=NOC)cc2)sc2ccc(F)cc12 [2-080]	2 (Herbicidal rate of 20% or more and less than 40%)

test system: barnyard grass; test: Test Example 3: herbicidal effect by foliage application, Wagner pot (Table 18, symbol H); assay type: in vivo, barnyard grass (Echinochloa crus-galli); details: 320 g/ha
In short: (§1)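 Plants were sown in alluvial soil held under 0.1–0.5 cm standing water and grown 14 days in a greenhouse at 25–30 °C. An emulsifiable formulation, water-diluted to the set dose, was then sprayed onto the foliage, and effects were scored three weeks later using previously defined criteria.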

SMILES	herbicidal effect on H (barnyard grass), rating 0-5
CON=C(C)c1ccc(-c2sc3ccc(F)cc3c2-c2c(O)c(C)nn(C)c2=O)cc1 [2-079]	5 (Herbicidal rate of 90% or more (almost completely withered))
CCCC(=O)Oc1c(C)nn(C)c(=O)c1-c1c(-c2ccc(C(C)=NOC)cc2)sc2ccc(F)cc12 [2-080]	5 (Herbicidal rate of 90% or more (almost completely withered))

test system: Chinese sprangletop; test: Test Example 3: herbicidal effect by foliage application, Wagner pot (Table 18, symbol D); assay type: in vivo, chinese sprangletop (Leptochloa chinensis); details: 320 g/ha
In short: as §1

SMILES	herbicidal effect on D (Chinese sprangletop), rating 0-5
CON=C(C)c1ccc(-c2sc3ccc(F)cc3c2-c2c(O)c(C)nn(C)c2=O)cc1 [2-079]	4 (Herbicidal rate of 70% or more and less than 90%)
CCCC(=O)Oc1c(C)nn(C)c(=O)c1-c1c(-c2ccc(C(C)=NOC)cc2)sc2ccc(F)cc12 [2-080]	5 (Herbicidal rate of 90% or more (almost completely withered))

test system: southern crabgrass; test: Test Example 4: herbicidal effect by soil treatment (Table 19, symbol F); assay type: in vivo, southern crabgrass (Digitaria ciliaris); details: 320 g/ha
In short: (§2)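 Pre-emergence style soil spray: seeds under ~1.5 cm sterilized diluvial soil received a uniform coat of emulsion diluted to the predetermined herbicide amount. Greenhouse 25–30° C; readout at week three on previously defined criteria.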

SMILES	herbicidal effect rating, F: southern crabgrass
CON=C(C)c1ccc(-c2sc3ccc(F)cc3c2-c2c(O)c(C)nn(C)c2=O)cc1 [2-079]	5 (Herbicidal rate of 90% or more (almost completely withered))
CCCC(=O)Oc1c(C)nn(C)c(=O)c1-c1c(-c2ccc(C(C)=NOC)cc2)sc2ccc(F)cc12 [2-080]	2 (Herbicidal rate of 20% or more and less than 40%)

test system: blackgrass; test: Test Example 4: herbicidal effect by soil treatment (Table 19, symbol J); assay type: in vivo, blackgrass (Alopecurus myosuroides); details: 320 g/ha
In short: as §2

SMILES	herbicidal effect rating, J: blackgrass
CON=C(C)c1ccc(-c2sc3ccc(F)cc3c2-c2c(O)c(C)nn(C)c2=O)cc1 [2-079]	0 (Herbicidal rate of 5% or less (almost no effect))
CCCC(=O)Oc1c(C)nn(C)c(=O)c1-c1c(-c2ccc(C(C)=NOC)cc2)sc2ccc(F)cc12 [2-080]	1 (Herbicidal rate of 5% or more and less than 20%)

test system: Italian ryegrass; test: Test Example 4: herbicidal effect by soil treatment (Table 19, symbol K); assay type: in vivo, Italian ryegrass (Lolium multiflorum); details: 320 g/ha
In short: as §2

SMILES	herbicidal effect rating, K: Italian ryegrass
CON=C(C)c1ccc(-c2sc3ccc(F)cc3c2-c2c(O)c(C)nn(C)c2=O)cc1 [2-079]	4 (Herbicidal rate of 70% or more and less than 90%)
CCCC(=O)Oc1c(C)nn(C)c(=O)c1-c1c(-c2ccc(C(C)=NOC)cc2)sc2ccc(F)cc12 [2-080]	4 (Herbicidal rate of 70% or more and less than 90%)

test system: windgrass; test: Test Example 4: herbicidal effect by soil treatment (Table 19, symbol L); assay type: in vivo, windgrass (Apera spica-venti); details: 320 g/ha
In short: as §2

SMILES	herbicidal effect rating, L: windgrass
CON=C(C)c1ccc(-c2sc3ccc(F)cc3c2-c2c(O)c(C)nn(C)c2=O)cc1 [2-079]	0 (Herbicidal rate of 5% or less (almost no effect))
CCCC(=O)Oc1c(C)nn(C)c(=O)c1-c1c(-c2ccc(C(C)=NOC)cc2)sc2ccc(F)cc12 [2-080]	2 (Herbicidal rate of 20% or more and less than 40%)

test system: velvetleaf; test: Test Example 4: herbicidal effect by soil treatment (Table 19, symbol M); assay type: in vivo, velvetleaf (Abutilon theophrasti); details: 320 g/ha
In short: as §2

SMILES	herbicidal effect rating, M: velvetleaf
CON=C(C)c1ccc(-c2sc3ccc(F)cc3c2-c2c(O)c(C)nn(C)c2=O)cc1 [2-079]	4 (Herbicidal rate of 70% or more and less than 90%)
CCCC(=O)Oc1c(C)nn(C)c(=O)c1-c1c(-c2ccc(C(C)=NOC)cc2)sc2ccc(F)cc12 [2-080]	5 (Herbicidal rate of 90% or more (almost completely withered))

test system: lambsquarters; test: Test Example 4: herbicidal effect by soil treatment (Table 19, symbol O); assay type: in vivo, lambsquarters (Chenopodium album); details: 320 g/ha
In short: as §2

SMILES	herbicidal effect rating, O: lambsquarters
CON=C(C)c1ccc(-c2sc3ccc(F)cc3c2-c2c(O)c(C)nn(C)c2=O)cc1 [2-079]	5 (Herbicidal rate of 90% or more (almost completely withered))
CCCC(=O)Oc1c(C)nn(C)c(=O)c1-c1c(-c2ccc(C(C)=NOC)cc2)sc2ccc(F)cc12 [2-080]	5 (Herbicidal rate of 90% or more (almost completely withered))

test system: persian speedwell; test: Test Example 4: herbicidal effect by soil treatment (Table 19, symbol R); assay type: in vivo, Persian speedwell (Veronica persica); details: 320 g/ha
In short: as §2

SMILES	herbicidal effect rating, R: persian speedwell
CON=C(C)c1ccc(-c2sc3ccc(F)cc3c2-c2c(O)c(C)nn(C)c2=O)cc1 [2-079]	5 (Herbicidal rate of 90% or more (almost completely withered))
CCCC(=O)Oc1c(C)nn(C)c(=O)c1-c1c(-c2ccc(C(C)=NOC)cc2)sc2ccc(F)cc12 [2-080]	5 (Herbicidal rate of 90% or more (almost completely withered))

test system: blackgrass; test: Test Example 5: herbicidal effect by foliage application, plastic box (Table 20, symbol J); assay type: in vivo, blackgrass (Alopecurus myosuroides); details: foliage application, 320 g/ha, evaluated three weeks after application
In short: (§3)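 Plants were sown into sterilized diluvial soil under about 1.5 cm cover and kept in a greenhouse at 25° C. to 30° C. Fourteen days on, foliage received an even spray of the diluted emulsion. Herbicidal or crop effect was judged three weeks afterwards.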

SMILES	herbicidal effect on J: blackgrass
CON=C(C)c1ccc(-c2sc3ccc(F)cc3c2-c2c(O)c(C)nn(C)c2=O)cc1 [2-079]	3 (Herbicidal rate of 40% or more and less than 70%)
CCCC(=O)Oc1c(C)nn(C)c(=O)c1-c1c(-c2ccc(C(C)=NOC)cc2)sc2ccc(F)cc12 [2-080]	5 (Herbicidal rate of 90% or more (almost completely withered))

test system: Italian ryegrass; test: Test Example 5: herbicidal effect by foliage application, plastic box (Table 20, symbol K); assay type: in vivo, Italian ryegrass (Lolium multiflorum); details: foliage application, 320 g/ha, evaluated three weeks after application
In short: as §3

SMILES	herbicidal effect on K: Italian ryegrass
CON=C(C)c1ccc(-c2sc3ccc(F)cc3c2-c2c(O)c(C)nn(C)c2=O)cc1 [2-079]	5 (Herbicidal rate of 90% or more (almost completely withered))
CCCC(=O)Oc1c(C)nn(C)c(=O)c1-c1c(-c2ccc(C(C)=NOC)cc2)sc2ccc(F)cc12 [2-080]	5 (Herbicidal rate of 90% or more (almost completely withered))

test system: velvetleaf; test: Test Example 5: herbicidal effect by foliage application, plastic box (Table 20, symbol M); assay type: in vivo, velvetleaf (Abutilon theophrasti); details: foliage application, 320 g/ha, evaluated three weeks after application
In short: as §3

SMILES	herbicidal effect on M: velvetleaf
CON=C(C)c1ccc(-c2sc3ccc(F)cc3c2-c2c(O)c(C)nn(C)c2=O)cc1 [2-079]	5 (Herbicidal rate of 90% or more (almost completely withered))
CCCC(=O)Oc1c(C)nn(C)c(=O)c1-c1c(-c2ccc(C(C)=NOC)cc2)sc2ccc(F)cc12 [2-080]	5 (Herbicidal rate of 90% or more (almost completely withered))

test system: redroot pigweed; test: Test Example 5: herbicidal effect by foliage application, plastic box (Table 20, symbol N); assay type: in vivo, redroot pigweed (Amaranthus retroflexus); details: foliage application, 320 g/ha, evaluated three weeks after application
In short: as §3

SMILES	herbicidal effect on N: redroot pigweed
CON=C(C)c1ccc(-c2sc3ccc(F)cc3c2-c2c(O)c(C)nn(C)c2=O)cc1 [2-079]	5 (Herbicidal rate of 90% or more (almost completely withered))
CCCC(=O)Oc1c(C)nn(C)c(=O)c1-c1c(-c2ccc(C(C)=NOC)cc2)sc2ccc(F)cc12 [2-080]	5 (Herbicidal rate of 90% or more (almost completely withered))

test system: lambsquarters; test: Test Example 5: herbicidal effect by foliage application, plastic box (Table 20, symbol O); assay type: in vivo, lambsquarters (Chenopodium album); details: foliage application, 320 g/ha, evaluated three weeks after application
In short: as §3

SMILES	herbicidal effect on O: lambsquarters
CON=C(C)c1ccc(-c2sc3ccc(F)cc3c2-c2c(O)c(C)nn(C)c2=O)cc1 [2-079]	5 (Herbicidal rate of 90% or more (almost completely withered))
CCCC(=O)Oc1c(C)nn(C)c(=O)c1-c1c(-c2ccc(C(C)=NOC)cc2)sc2ccc(F)cc12 [2-080]	5 (Herbicidal rate of 90% or more (almost completely withered))
